# Data reported in US6737407B1, “Treatment of obesity” (Metabolic Pharmaceuticals, Ltd., priority 1997, dated 2004).
# Where no end group is shown, it is not given here.
# Assays:
# [1] = system: adipose tissue of the C57BL/6J (ob/ob) mice; experiment: Ex vivo lipolysis in adipose tissue of treated ob/ob mice (glycerol release); parameters: species or system mouse; conditions: both sexes, ob/ob mice after 18-day treatment
# Experimental: FIGS. 6A & 6B depict the ex vivo effect on lipolysis in adipose tissue of the C57BL/6J (ob/ob) male mice (6A) and female mice (6B) after 18-days treatment with hGH 177-191. […] Values are mean±SEM of 12 determinations from 6 animals of each group. The differences between the hGH 177-191 treated and saline control groups were statistically significant.
# (§1) Adipose tissues were removed from animals and sliced into segments of approximately 200 mg each. Then the tissues were pre-incubated in 25 ml vials containing 2 ml of Krebs-Ringerbicarbonate (KRB) buffer, 4% defatted BSA and 5.5 mM glucose under an atmosphere of carbogen (95%O2/ 5%CO2) at 37° C. for 1 hour. Tissues were then transferred to another vials with fresh medium and the incubation was initiated by adding hGH 177-191 peptide or analogues into the vials. The mixtures were then incubated at 37° C. for 90 minutes. After incubation, the tissues wee removed and aliquots (200 μl) of samples withdrawn from the medium were assayed for the contents of glycerol or free fatty acid (FFA) either by the enzyme assay (glycerol kinase) or calorimetric (copper-dye) spectrometry. The NADH or color produced was then monitored by the absorption at 340 nm and 610 nm, respectively.
# [2] = system: Zucker fatty (fa/fa) rats; experiment: Chronic treatment of Zucker fatty rats: body weight gain and food consumption; format: in vivo, rat; conditions: throughout the treatment period
# Experimental: Animals were given a daily intraperitoneal injection of either saline or the peptide (500 μg/kg body weight) (3A) or implanted intradermally with a slow-release tablet (500 μg/day/kg body weight) in the lower quadrant of the abdomen of the animals. The control group was implanted with a placebo tablet in the same manner. Each point represents the mean±SEM of 6 animals.
# The treatment for the four groups of animals was as described in FIGS. 3A & 3B. Each point represents the mean±SEM of 6 animals.
# The animals of the same age and same sex were randomly divided into two groups, housed 6 per cage and maintained on a normal 12-hr light/dark cycle at a constant room temperature of 25° C. in the animal house of the Department of Biochemistry and—Molecular Biology, Monash University, Clayton, Australia. Animals were fed ad libitum on pre-determined quantity of animal pellets (Clark King, Melboume, Australia) and allowed free access to water at all times. […] The body weight and food intake were monitored for the periods of time as indicated.
# Cumulative weight gain and food consumption were determined at 3-day intervals by the measurements of body weight and uneaten food remaining in the cages. […]
# [3] = system: adipose tissues from male Zucker fatty (fa/fa) rats; experiment: In vitro glycerol release during lipolysis in isolated adipose tissue; format: cell-based, rat; conditions: adipose tissues isolated from obese animals
# Experimental: as §1
# [4] = system: Human Subcutaneous adipose Tissue; experiment: Lipolytic activity in human subcutaneous adipose tissue; format: cell-based; conditions: 0.5 μM peptide
# Experimental: as §1
# Tables 6 and 7 show the in vitro antilipogenic and lipolytic activity of hGH 177-191 and two representative analogues (Ref Nos. 9604 and 9605) on human adipose tissue.
# [5] = system: hormone-sensitive lipase; experiment: Hormone-sensitive lipase (HSL) assay in isolated adipocytes; format: cell-based, rat
# Experimental: The enzyme was expressed as U/mg protein, where the release of 1 nmole of oleic acid per hour was considered as 1 Unit of enzyme activity.
# Hormone-sensitive lipase (HSL) activity of isolated adipocytes was used as a model to evaluate the lipolytic effect of hGH 177-191 peptide and analogues. In this assay [C^14]-triolein was used as a substrate by HSL. The amount of hydrolyzed [C^14]-oleic acid was determined and used as an index of HSL activity.
# The adipocytes were prepared from the epididymal fat pads of male Zucker fatty (fa/fa) rats by collagenase digestion. Fat pads (5 g) were finely-cut into small (2-3 mm) pieces and placed in a siliconised glass vial containing 10 ml digestion medium. […] The isolated adipocytes were resuspended with 10 ml collagen-free buffer and the concentration of adipocytes was estimated by counting an aliquot of a pre-determined volume of cells on a microscope slide. […]
# The HSL activity was measured at 37° C. for 1 hour in a final volume of 200 μl, containing 10 μmoles phosphate buffer (pH 7.0). […] The [C^14]-radioactivity was measured by a liquid scintillation counter. […] The HSL activity was expressed as U/mg protein, where the release of 1 nmole of oleic acid per hour was defined as 1 U of enzyme activity.
sequence,measurement,setting,value
LRIVQCRSVEGSCGF (cysteine pairing not given here) [Ref No. 9401],lipolytic activity in adipose tissues of treated animals (in words),[1],increase significantly
same,food consumption (in words),[2],unchanged
same,release of glycerol (in words),[3],enhanced
same,Glycerol released,[4],1000 ± 80 nmol/mg tissue/hour
same,effect on hormone-sensitive lipase (in words),[5],effective in stimulating
